Each structure is given as a SMILES string.

The term IC50 denotes the concentration that inhibits the measured activity by half.

For this assay, the target named is T1, BaF3-Tel-IGF1-R (Homo sapiens, UniProt P08069).
T1 construct: the kinase domain of IGF-1R (aa 976-1367) linked by a Ser-Arg-linker; expressed in transfected cells; host or cells: BaF3 murine proB-cell lymphoma cells, stably transduced
T1 sequence (P08069 976-1367): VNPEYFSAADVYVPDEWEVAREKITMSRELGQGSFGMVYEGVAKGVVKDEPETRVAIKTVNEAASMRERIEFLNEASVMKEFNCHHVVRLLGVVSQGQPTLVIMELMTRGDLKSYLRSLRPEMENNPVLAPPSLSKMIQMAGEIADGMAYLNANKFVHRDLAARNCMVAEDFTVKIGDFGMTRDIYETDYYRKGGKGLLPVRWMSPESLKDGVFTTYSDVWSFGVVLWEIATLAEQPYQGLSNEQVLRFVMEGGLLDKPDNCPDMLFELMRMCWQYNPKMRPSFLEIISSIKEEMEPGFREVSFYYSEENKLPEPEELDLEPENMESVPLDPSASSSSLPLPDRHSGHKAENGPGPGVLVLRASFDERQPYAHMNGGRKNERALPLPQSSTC
In words: BaF3 cell viability assay (resazurin), 384-well format. The assay is classed as cell-based. Conditions: 384-well plate format; 48 h incubation; resazurin dye reduction; cell proliferation/viability. The source says: BaF3-Tel-IGF1-R and BaF3-InsR are BaF3 murine proB-cell lymphoma cell derivatives [the BaF3 cell line (also termed Ba/F3) is available from the German Collection of Microorganisms and Cell Cultures (DSMZ), Braunschweig, Germany] that have been rendered IL-3-independent by stable transduction with kinase-activating fusions between human TEL (aa 1-452) and the kinase domain of IGF-1R (aa 976-1367) linked by a Ser-Arg-linker (Boulay et al, Cancer Res 68, 3743-3751, 2008), and a fusion between human TEL (aa 1-337) and the kinase domain (aa 1015-1382) of the Insulin receptor (Melnick J S et al, Proc Natl Acad Sci USA 103, 3153-3158, 2006), respectively. Cells are cultured in RPMI-1640 (Animed #1-14F01-1) supplemented with 2% L-glutamine (Animed #5-10K50-H) and 10% fetal calf serum (FCS, Animed #2-01F16-I). Wild-type, untransfected BaF3 cells are maintained in above medium plus 10 U/ml IL-3 (mouse Interleukin-3, Roche #1380745 or Invitrogen # PMC0035) and are used to identify non-selective, generally growth-inhibitory compounds. Cells (1.5×10^4 cells per well) are seeded in 190 μl fresh medium into 96-well plates. 10 μl 20× compound solutions are added. As internal control, the kinase inhibitor PKC412 is routinely used. Control cells treated with DMSO (0.1% final concentration) serve as growth reference (set as 100% growth). In addition, a plate blank value is routinely determined in a well containing only […] of medium and no cells. IC50 determinations are performed based on eight 3-fold serial dilutions of the test compound, starting at 10 μM. Following incubation of the cells for 48 h at 37° C. and 5% CO2, the effect of inhibitors on cell viability is assessed by the resazurin sodium salt dye reduction assay (commercially known as AlamarBlue assay) basically as previously described (O'Brien J. et al., Eur. J. Biochem. 267: 5421-5426, 2000). Briefly, 20 μl dye solution is added per well and the plates incubated for 6 h at 37° C. and 5% CO2. Thereafter, fluorescence is measured using a Saphirell 96-well plate reader (TECAN, Männedorf, Switzerland) with the following settings: Excitation 544 nm and Emission 590 nm. For data analysis, the plate blank value is subtracted from all data points. The effect of a particular test compound concentration on cell proliferation and viability is expressed as percentage of the blank-corrected reading obtained for cells treated with vehicle only, which is set as 100%. IC50 values can be determined using XLfit (V4.2), applying standard four parameter logistic model #205 (IDBS, Guilford, UK) or other common curve-fitting software.
To achieve a higher throughput, the cell viability assay can also be performed in a 384-well format. Briefly, 4′500 freshly diluted cells are seeded in 54 μl/well into 384-well plates using a liquid dispenser. 6 μl 10× compound solution is added to the cell plate. As internal control, the kinase inhibitor PKC412 is routinely used. Control cells treated with DMSO (0.1% final concentration) serve as growth reference (set as 100% growth). In addition, a plate blank value is routinely determined in a well containing only 60 μl of medium and no cells. Dose-response effects are determined by 3-fold serial compound dilutions, starting at 10 μM. Following incubation of the cells for 48 h at 37° C. and 5% CO2, the effect of compounds on cell proliferation/viability is assessed by addition of 6 μl resazurin sodium salt dye solution per well. Following incubation for an additional 6 hrs at 37° C. and 5% CO2, fluorescence is measured using an Infiniti M1000 microplate reader (TECAN, Männedorf, Switzerland) with excitation and emission wavelengths set at 544 and 590 nm, respectively. For data analysis, the plate blank value is subtracted from all data points. IC50 values can be determined by four parameter logistic fitting as described above.
Background: The colour change of resazurin is a common sign of viable cells or microbes.
`COc1ccc(NC(C)=O)c(N2CCC(n3c(=N)n(Cc4ccccc4Cl)c4ccccc43)CC2)c1` [Example 56.10, N-(2-{4-[3-(2-Chloro-benzyl)-2-imino-2,3-dihydro-benzoimidazol-1-yl]-piperidin-1-yl}-4-methoxy-phenyl)-acetamide] displayed an IC50 of 88 nM.

As for `CC(=O)Nc1ccc(C)cc1N1CCC(n2c(=N)n(Cc3cccc4[nH]ccc34)c3ccccc32)CC1` [Example 56, N-(2-{4-[2-Imino-3-(1H-indol-4-ylmethyl)-2,3-dihydro-benzoimidazol-1-yl]-piperidin-1-yl}-4-methyl-phenyl)acetamide], the IC50 was < 4.5 nM.

In turn, `CC(=O)Nc1ccccc1N1CCC(n2c(=N)n(Cc3cccc4[nH]ccc34)c3ccccc32)CC1` [Example 56.2, N-(2-{4-[2-Imino-3-(1H-indol-4-ylmethyl)-2,3-dihydro-benzoimidazol-1-yl]-piperidin-1-yl}-phenyl)-acetamide] yielded a half-maximal inhibitory concentration (IC50) of 42 nM.

`CC(=O)Nc1ccc(C)cc1N1CCC(n2c(=N)n(Cc3ccccc3Cl)c3ccccc32)CC1` [Example 56.5, N-(2-{4-[3-(2-Chloro-benzyl)-2-imino-2,3-dihydro-benzoimidazol-1-yl]-piperidin-1-yl}-4-methyl-phenyl)-acetamide] returned a half-inhibitory concentration (IC50) of 51 nM.

In turn, `CC(=O)Nc1ccc(C(F)(F)F)cc1N1CCC(n2c(=N)n(Cc3ccccc3Cl)c3ccc(F)cc32)CC1` [Example 56.17, N-(2-{4-[3-(2-Chloro-benzyl)-6-fluoro-2-imino-2,3-dihydro-benzoimidazol-1-yl]-piperidin-1-yl}-4-trifluoromethyl-phenyl)-acetamide] registered an IC50 of 38 nM.

In turn, `CC(=O)Nc1ccc(Cl)cc1N1CCC(n2c(=N)n(Cc3cccc4[nH]nnc34)c3ccc(F)cc32)CC1` [Example 63, N-(2-{4-[3-(1H-Benzotriazol-4-ylmethyl)-6-fluoro-2-imino-2,3-dihydro-benzoimidazol-1-yl]-piperidin-1-yl}-4-chloro-phenyl)-acetamide] registered a half-inhibitory concentration (IC50) of 22 nM.

With `CC(=O)Nc1ccc(C(F)(F)F)cc1N1CCC(n2c(=N)n(Cc3cccc4[nH]nnc34)c3ccccc32)CC1` [Example 56.8, N-(2-{4-[3-(1H-Benzotriazol-4-ylmethyl)-2-imino-2,3-dihydro-benzoimidazol-1-yl]-piperidin-1-yl}-4-trifluoromethyl-phenyl)-acetamide], the IC50 is 209 nM.

For the compound `COc1ccc(NC(C)=O)c(N2CCC(n3c(=N)n(Cc4cccc5[nH]ccc45)c4ccc(F)cc43)CC2)c1` [Example 56.13, N-(2-{4-[6-Fluoro-2-imino-3-(1H-indol-4-ylmethyl)-2,3-dihydro-benzoimidazol-1-yl]-piperidin-1-yl}-4-methoxy-phenyl)-acetamide], the half-inhibitory concentration (IC50) worked out at 9 nM.

Regarding `CC(=O)Nc1ccc(C)nc1N1CC[C@H](n2c(=N)n(Cc3cccc4[nH]ccc34)c3ccc(F)cc32)[C@@H](O)C1` (racemic) [Example 67.3, Rac-trans-N-{4-[6-Fluoro-2-imino-3-(1H-indol-4-yl-methyl)-2,3-dihydro-benzo-imidazol-1-yl]-3-hydroxy-6′-methyl-3,4,5,6-tetrahydro-2H-[1,2′]bipyridinyl-3′-yl}-acetamide], inhibition was half-maximal at 167 nM (IC50).

In turn, `CC(=O)Nc1ccc(C)cc1N1CCC(n2c(=N)n(Cc3ccccc3Cl)c3ccc(F)cc32)CC1` [Example 56.12, N-(2-{4-[3-(2-Chloro-benzyl)-6-fluoro-2-imino-2,3-dihydro-benzoimidazol-1-yl]-piperidin-1-yl}-4-methyl-phenyl)-acetamide] returned a concentration for half-maximal inhibition (IC50) of 48 nM.

In turn, `CC(=O)Nc1ccc(Cl)cc1N1CCC(n2c(=N)n(Cc3cccc4[nH]nnc34)c3ccccc32)CC1` [Example 60, N-(2-{4-[3-(1H-Benzotriazol-4-ylmethyl)-2-imino-2,3-dihydro-benzoimidazol-1-yl]-piperidin-1-yl}-4-chloro-phenyl)-acetamide] registered an IC50 of 64 nM.

As for `CC(=O)Nc1ccc(C#N)cc1N1CCC(n2c(=N)n(Cc3ccccc3Cl)c3ccccc32)CC1` [Example 56.9, N-(2-{4-[3-(2-Chloro-benzyl)-2-imino-2,3-dihydro-benzoimidazol-1-yl]-piperidin-1-yl}-4-cyano-phenyl)-acetamide], the IC50 is 82 nM.

In the case of `CC(=O)Nc1ccccc1N1CCC(n2c(=N)n(Cc3cccc4[nH]ccc34)c3ccc(F)cc32)CC1` [Example 56.19, N-(2-{4-[6-Fluoro-2-imino-3-(1H-indol-4-ylmethyl)-2,3-dihydro-benzoimidazol-1-yl]-piperidin-1-yl}-phenyl)-acetamide], the concentration for half-maximal inhibition (IC50) was found to be 382 nM.

Compound `CC(=O)Nc1ccc(Cl)cc1N1CC[C@H](n2c(=N)n(Cc3cccc4[nH]ccc34)c3ccc(F)cc32)[C@@H](O)C1` (racemic) [Example 67, Rac-trans-N-(4-Chloro-2-{4-[6-fluoro-2-imino-3-(1H-indol-4-ylmethyl)-2,3-dihydro-benzoimidazol-1-yl]-3-hydroxy-piperidin-1-yl}-phenyl)-acetamide] came in with an IC50 of 23 nM.

Regarding `CC(=O)Nc1ccc(Cl)cc1N1CCC(n2c(=N)n(Cc3ccccc3Cl)c3ccccc32)CC1` [Example 58, N-(4-Chloro-2-{4-[3-(2-chloro-benzyl)-2-imino-2,3-dihydro-benzoimidazol-1-yl]-piperidin-1-yl}-phenyl)-acetamide], the half-maximal inhibitory concentration (IC50) stood at 37 nM.

`CC(=O)Nc1ccc(Cl)cc1N1CCC(n2c(=N)n(Cc3cccc4[nH]ccc34)c3ccc(F)cc32)CC1` [Example 61, N-(4-Chloro-2-{4-[6-fluoro-2-imino-3-(1H-indol-4-ylmethyl)-2,3-dihydro-benzoimidazol-1-yl]-piperidin-1-yl}-phenyl)-acetamide]: inhibition was half-maximal at 8 nM (IC50).

As for `CC(=O)Nc1ccc(Cl)cc1N1CC[C@H](n2c(=N)n(Cc3cccc4[nH]cnc34)c3ccc(F)cc32)[C@@H](O)C1` (racemic) [Example 67.7, Rac-trans-N-(2-{4-[3-(1H-Benzo-imidazol-4-ylmethyl)-6-fluoro-2-imino-2,3-dihydro-benzo-imidazol-1-yl]-3-hydroxy-piperidin-1-yl}-4-chloro-phenyl)-acetamide], the midpoint of inhibition, the IC50, lay at 644 nM.

For the compound `CC(=O)Nc1ccc(C(F)(F)F)cc1N1CCC(n2c(=N)n(Cc3cccc4[nH]ccc34)c3ccc(F)cc32)CC1` [Example 56.16, N-(2-{4-[6-Fluoro-2-imino-3-(1H-indol-4-ylmethyl)-2,3-dihydro-benzoimidazol-1-yl]-piperidin-1-yl}-4-trifluoromethyl-phenyl)-acetamide], the midpoint of inhibition, the IC50, lay at 39 nM.

With `CC(=O)Nc1ccc(Cl)cc1N1CCC(n2c(=N)n(Cc3cccc4[nH]ccc34)c3ccccc32)CC1` [Example 57], half-maximal inhibition (IC50) was put at 15 nM.

`CC(=O)Nc1ccccc1N1CCC(n2c(=N)n(Cc3ccccc3Cl)c3ccc(F)cc32)CC1` [Example 56.18, N-(2-{4-[3-(2-Chloro-benzyl)-6-fluoro-2-imino-2,3-dihydro-benzoimidazol-1-yl]-piperidin-1-yl}-phenyl)-acetamide] came in with a 50% inhibitory concentration (IC50) of 119 nM.

As to `CC(=O)/N=c1\n(Cc2ccccc2Cl)c2ccccc2n1C1CCN(c2cc(Cl)ccc2NC(C)=O)CC1` [Example 59, N-(2-{4-[2-Acetylimino-3-(2-chloro-benzyl)-2,3-dihydro-benzoimidazol-1-yl]-piperidin-1-yl}-4-chloro-phenyl)-acetamide], the IC50 is 407 nM.
